Laboratory results from patent publication US20140056952A1, “METHODS AND COATINGS FOR TREATING BIOFILMS” (President and Fellows of Harvard College, priority 2011, published 2014).
Entries after “also recorded” stand apart in the source; their conditions may differ.

How the values were obtained:
[1] = test system: B. subtilis strain NCBI3610; test: Pellicle (biofilm) formation inhibition assay in liquid biofilm-inducing medium; type: cell-based, Bacillus subtilis; details: for concentration needed for inhibition of biofilm formation: B. subtilis pellicle formation; for biofilm-inhibitory activity (library of polyamines): B. subtilis; for inhibition of pellicle formation: final concentration of 50 μM
Method: Bacillus subtilis strains PY79, 3610 and their derivatives were grown in Luria-Bertani (LB) medium at 37° C. or MSgg medium (1) at 23° C. Solid media contained 1.5% Bacto agar. When appropriate, antibiotics were added at the following concentrations for growth of B. subtilis: 10 μg per ml of tetracycline, and 5 μg per ml of erythromycin, 500 μg per ml of spectinomycin.
B. subtilis strain NCBI3610 was grown at 22° C. in 12-well plates in liquid biofilm-inducing medium for 3 or 8 days. Conditioned medium (500 ml) from an 8-day-old culture was concentrated on the C-18 column and eluted step-wise with methanol.
To identify the second biofilm-inhibiting factor, high-performance liquid chromatography (HPLC) was carried out on the 25% methanol eluate using a phenyl-hexyl column. […] Cells of NCBI3610 were grown in fresh medium containing PBS buffer (control), norspermidine (100 μM), morpholine (100 μM) HPLC-purified fatty acid (˜100 μM), or spermidine (100 μM).
Pellicle formation of strain NCBI 3610 was tested in the presence of the indicated concentrations of norspermidine (FIG. 1D) or spermidine (FIG. 1E).
To identify features of norspermidine important for its biofilm disassembly activity, we tested a library of polyamines in our biofilm inhibition assay (FIGS. 9A, 9B, 10 and Table 2).
The effect of polyamines on pellicle formation by B. subtilis was examined. B. subtilis wild-type cells were grown to a mid-logarithmic phase and diluted 1:1000 in biofilm media applied with each polyamine to the final concentration of 50 μM.
The effect of cyclic polyamines on biofilm formation by B. subtilis was examined. B. subtilis wild-type cells were grown to a mid-logarithmic phase and diluted 1:1000 in biofilm media (18A) or in a medium applied with cyclic compound 1,5,9-Triazacyclododecane to the final concentration of 50 μM (18B).

[2] = test system: B. subtilis wild-type cells; test: Biofilm formation on solid biofilm medium; type: cell-based, Bacillus subtilis; details: 1 μl cells mixed with 1 μl (1 mM) polyamine
Method: B. subtilis wild-type cells were grown to a mid-logarithmic phase and 1 μl of cells was mixed with 1 μl (1 mM) of each polyamine. The mixture was plated on solid biofilm medium.
B. subtilis wild-type cells were grown to a mid-logarithmic phase and 1 μl of cells was either mixed with PBS (18C) or mixed with 1 μl (1 mM) of each polyamine (18D). The mixture was plated on solid biofilm medium. “3*” refers to 1,5,9-Triazacyclododecane.

[3] = test system: exopolysaccharide of E. coli cells; test: Fluorescence microscopy of exopolysaccharide staining; type: cell-based, Escherichia coli
Text: (§1) In testing E. coli, the biofilm-proficient strain MC4100 was selected because a major component of exopolysacchride is colanic acid (Danese et al., 2000; Price and Raivio, 2009).

TasA-mCherry = test: Fluorescence microscopy of TasA-mCherry fusion; type: cell-based, Bacillus subtilis; details: norspermidine 50 μM
Method: NCBI 3610 containing the tasA-mCherry fusion (DR30) was grown without shaking in a biofilm medium (upper row) or in the same medium applied with norspermidine (50 μM, lower row). Cells were washed in PBS, and visualized by fluorescence microscopy.
(§2) To investigate further, exopolysaccharide was visualized by fluorescence microscopy using a conjugate of the carbohydrate-binding protein concanavalin A with Texas Red (FIG. 5) (McSwain et al., 2005). As evidence of specificity, the conjugate decorated wild-type cells but not cells from a mutant (Δeps) blocked in exopolysaccharide production (FIG. 6A). Indeed, at an exposure at which concanavalin A staining with the wild type strain gave an extremely bright fluorescent signal, little or no signal could be detected for the Δeps mutant, except at long exposures and enhanced brightness (FIG. 6A). Next, we investigated the effects of norspermidine and spermidine. […] Therefore, the difference in the staining was evidently due to differential levels of cell-associated exopolysaccharide. […] Thus, while not being bound to any theory, it is believed that norspermidine disrupts the matrix and by targeting exopolysaccharide.

[4] = test system: B. subtilis strain NCBI3610; test: Pellicle (biofilm) formation inhibition assay in liquid biofilm-inducing medium; type: cell-based, Bacillus subtilis
[5] = test system: Proteus mirabilis strain BB2000; test: Biofilm formation in polystyrene wells, crystal violet OD 595 nm; type: cell-based; details: 1 mM, 48 hours at 30° C., vs no treatment control
Method: To examine the effects of polyamines on biofilm formation, wells were initially treated with water (no treatment), 1 mM norspermidine, and 1 mM norspermine in 3 ml M9+glucose before inoculation with P. mirabilis. Biofilms were permitted to grow for 48 hours at 30° C. without shaking The amount of biofilm formed was assessed with the standard assay of crystal violet staining (O'Toole G et al., Biofilm formation as microbial development, Annu Rev. Microbiol. (2000) 54:49-79); supernatant was removed from the wells and crystal violet (at […]) was then incubated in each well for 15 minutes at room temperature, followed by removal of the crystal violet from the wells and a subsequent washes with water. Any crystal violet attached the wells was next solubilized with 95% ethanol for 15 minutes at room temperature, and the subsequent optical density at 595 nm in each well was measured with a multiplate reader.

E. coli strain MC4100 = test: Submerged biofilm formation, crystal violet staining; type: cell-based, Escherichia coli; details: library tested at 500 μM
Method: (§3) The compounds were tested at 500 μM. Biofilm formation was visualized by crystal violet staining of submerged biofilms.
(§4) Whether polyamines might prevent biofilm formation by other bacteria that produce an exopolysaccharide matrix was examined. […] The compounds were tested at 500 μM. Biofilm formation was visualized by crystal violet staining of submerged biofilms.
as §1

[6] = test system: P. aeriginosa strain PA14; test: Biofilm formation on solid M63 medium; type: cell-based, Pseudomonas aeruginosa; details: 1 μl cells mixed with 1 μl (10 mM) polyamine
Method: The effect of polyamines on biofilm formation by Pseudomonas was examined. P. aeriginosa strain PA14 were grown to a mid-logarithmic phase and 1 μl of cells was mixed with 1 μl (10 mM) of each polyamine. The mixture was plated on solid M63 medium.

S. aureus strain SCO1 = test: Submerged biofilm formation, crystal violet staining; type: cell-based, Staphylococcus aureus; details: norspermidine 10 μM, norspermine 100 μM; library at 500 μM
Method: as §3, §4
Similarly, FIGS. 19A-H show the results of S. aureus strain SC-01 grown to a mid-logarithmic phase and diluted 1:1000 into a 12 wells plate in a TSB medium applied with NaCl (3%) and Glucose (0.5%). The medium was applied with norspermidine (10 μM), norspermine (100 μM) or spermine (500 μM). Planktonic cells were removed (19A-D). Wells were washed once, and incubated with Crystal Violet (0.1%) for 15 mins. Wells were washed twice in DDW (19E-H).
The effect of certain polyamines combined with biofilm-inhibiting D-amino acids in Staphylococcus was examined. S. aureus strain SC-01 was grown to a mid-logarithmic phase and diluted 1:1000 into a 12 wells plate in a TSB medium applied with NaCl (3%) and Glucose (0.5%). The medium was applied with either norspermidine or D-tyrosine or both as indicated below each panel. Planktonic cells were removed Wells were washed once, and incubated with Crystal Violet (0.1%) for 15 mins. Wells were washed twice in DDW.

[7] = test system: exopolysaccharide of B. subtilis NCBI 3610 cells; test: Fluorescence microscopy of exopolysaccharide with concanavalin A-Texas Red; type: cell-based, Bacillus subtilis; details: norspermidine 25 μM, spermidine 1 mM
Text: The cells were washed in PBS and stained for exopolysaccharide with a conjugate of concanavalin A with Texas-Red.
as §2

B. subtilis NCBI 3610 = test: Cell growth in MSgg medium with shaking; type: cell-based, Bacillus subtilis; details: norspermidine 100 μM
Method: NCBI 3610 was grown in MSgg medium applied with norspermidine (100 μM) with shaking or in untreated medium served as a control (NT). […] Therefore, whether norspermidine interacts directly with the exopolysaccharide was investigated. To attempt to detect such an interaction, dynamic light scattering was used. Dynamic scattering is a standard procedure for measuring the average radius of polymers in which a laser beam is transmitted through a sample containing polymers in solution (Berne, 1976; Orgad et al., 2011; Vinayahan et al., 2010).

[8] = test system: exopolysaccharide of S. aureus cells; test: Fluorescence microscopy of exopolysaccharide staining; type: cell-based, Staphylococcus aureus
B. subtilis pellicles = test: Disassembly of pre-formed pellicles (OD600 of medium vs pellicle); type: cell-based, Bacillus subtilis; details: 250 μM applied at day 2, additional 24 hrs
Method: After incubation for the indicated times, pellicle material and the medium were separated and each brought to a volume of 3 ml. After mild sonication, the OD600 was determined for each sample. The % of disassembly represents the OD600 of the medium as a percent of the sum of the OD600 of the medium and the OD600 of the pellicle. […] Thus, D-amino acids and norspermidine act synergistically in preventing biofilm formation and triggering the disassembly of mature biofilms.
Whether polyamines could trigger disassembly of biofilms formed by B. subtilis was examined. B. subtilis wild-type cells grown in liquid biofilm medium. Cells were grown to mid-logarithmic phase and diluted 1:1000 in liquid biofilm media. At day 2, pre-formed pellicles were applied with either PBS (A) or norspermine (250 μM) (B). Pellicles were incubated for additional 24 hrs.

1,3-diaminopropane [Molecule 6]
concentration needed for inhibition of biofilm formation [1]: > 5 mM

NCCCNCCCN [Molecule 1, N-(3-aminopropyl)propane-1,3-diamine]
inhibition of biofilm formation on solid biofilm medium [2]: inhibit biofilm formation | biofilm-inhibitory activity (library of polyamines) [1]: exhibited biofilm-inhibitory activity | MBIC- Minimal Biofilm Inhibitory Concentration ([1]; B. subtilis biofilm inhibition assay): 25 to 50 µM | concentration at which biofilm formation was inhibited ([1]; authentic norspermidine, NCBI3610 pellicle): 25 µM | inhibition of pellicle formation [1]: inhibit biofilm formation | staining of exopolysaccharide, E. coli [3]: markedly diminished staining | effect on protein component of the matrix (TasA-mCherry) (TasA-mCherry): little or no effect | effect on residual pellicle of exopolysaccharide mutant ([4]; ΔepsH, DS76, 25 μM norspermidine): little effect | effect on pellicle formation by amyloid fiber mutant ([4]; ΔtasA, FC55, 25 μM norspermidine): abolished pellicle formation | reduction of Proteus mirabilis biofilm formation [5]: sufficient to reduce biofilm formation | inhibition of biofilm formation by E. coli (E. coli strain MC4100): inhibited the formation of submerged biofilms | inhibition of biofilm formation by Pseudomonas [6]: inhibit biofilm formation | inhibition of biofilm formation by S. aureus (S. aureus strain SCO1): inhibited the formation of submerged biofilms; also recorded: inhibit biofilm formation | pattern of exopolysaccharide staining [7]: disrupted the relatively uniform, cell-associated pattern of staining | cell growth (B. subtilis NCBI 3610): not significantly inhibited | staining of exopolysaccharide, S. aureus [8]: markedly diminished staining

NCCCNCCCNCCCN [Molecule 2, N′-[3-(3-aminopropylamino)propyl]propane-1,3-diamine]
inhibition of biofilm formation on solid biofilm medium [2]: inhibit biofilm formation | biofilm-inhibitory activity (library of polyamines) [1]: exhibited biofilm-inhibitory activity | inhibition of pellicle formation [1]: inhibit biofilm formation | reduction of Proteus mirabilis biofilm formation [5]: sufficient to reduce biofilm formation | inhibition of biofilm formation by E. coli (E. coli strain MC4100): inhibited the formation of submerged biofilms | inhibition of biofilm formation by Pseudomonas [6]: inhibit biofilm formation | inhibition of biofilm formation by S. aureus (S. aureus strain SCO1): inhibited the formation of submerged biofilms; also recorded: inhibit biofilm formation | disassembly of pre-formed pellicles (B. subtilis pellicles): triggered disassembly

NCCCCNCCCN [Molecule 3, spermidine, reference compound]
inhibition of biofilm formation on solid biofilm medium [2]: do not | concentration needed for inhibition of biofilm formation [1]: > 2 mM | inhibition of pellicle formation [1]: do not | pattern of exopolysaccharide staining [7]: No such effect

NCCCN(CCCN)CCCN [Molecule 21, N^1,N^1-bis(3-aminopropyl)propane-1,3-diamine]
biofilm-inhibitory activity (library of polyamines) [1]: did not block activity

C1CNCCCNCCCNC1 [c, 1,5,9-triazacyclododecane]
inhibition of biofilm formation on solid biofilm medium [2]: inhibits biofilm formation | inhibition of pellicle formation [1]: inhibits biofilm formation

speramide [reference compound]
inhibition of biofilm formation on solid biofilm medium [2]: do not | inhibition of pellicle formation [1]: do not
